In PubChem BioAssay (NCI):
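Cells were grown in 96-well plates and exposed to each compound for 48 hours at five concentrations; endpoints were interpolated linearly between bracketing concentrations, or set to the highest concentration if not reached. TGI: concentration producing complete growth inhibition.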

Assays:
Assay in all cases: NCI anticancer screen, dose series, 48 h
SN12C renal = system: SN12C renal
HL-60(TB) leukemia = system: HL-60(TB) leukemia
OVCAR-8 ovarian = system: OVCAR-8 ovarian
M14 melanoma = system: M14 melanoma
OVCAR-5 ovarian = system: OVCAR-5 ovarian
HOP-18 NSCLC = system: HOP-18 NSCLC
LXFL 529 NSCLC = system: LXFL 529 NSCLC
RPMI-8226 leukemia = system: RPMI-8226 leukemia
HOP-92 NSCLC = system: HOP-92 NSCLC
DMS 114 small cell lung = system: DMS 114 small cell lung
U251 CNS = system: U251 CNS
NCI-H460 lung = system: NCI-H460 lung
TK-10 renal = system: TK-10 renal
RXF 393 renal = system: RXF 393 renal
ACHN renal = system: ACHN renal
SK-MEL-2 melanoma = system: SK-MEL-2 melanoma
KM12 colon = system: KM12 colon
K-562 leukemia = system: K-562 leukemia
SK-MEL-5 melanoma = system: SK-MEL-5 melanoma
SNB-75 CNS = system: SNB-75 CNS
M19-MEL melanoma = system: M19-MEL melanoma
NCI-H522 lung = system: NCI-H522 lung
UACC-62 melanoma = system: UACC-62 melanoma
OVCAR-4 ovarian = system: OVCAR-4 ovarian
SNB-19 CNS = system: SNB-19 CNS
CAKI-1 renal = system: CAKI-1 renal
IGROV1 ovarian = system: IGROV1 ovarian
UO-31 renal = system: UO-31 renal
CCRF-CEM leukemia = system: CCRF-CEM leukemia
KM20L2 colon = system: KM20L2 colon
LOX IMVI melanoma = system: LOX IMVI melanoma
NCI-H226 lung = system: NCI-H226 lung
HCT-15 colon = system: HCT-15 colon
RXF-631 renal = system: RXF-631 renal
XF 498 CNS = system: XF 498 CNS
SF-295 CNS = system: SF-295 CNS
SW-620 colon = system: SW-620 colon
A549 NSCLC = system: A549 NSCLC
NCI-H23 lung = system: NCI-H23 lung
DMS 273 small cell lung = system: DMS 273 small cell lung
UACC-257 melanoma = system: UACC-257 melanoma
EKVX NSCLC = system: EKVX NSCLC
A498 renal = system: A498 renal
HT29 colon = system: HT29 colon
HOP-62 NSCLC = system: HOP-62 NSCLC
MOLT-4 leukemia = system: MOLT-4 leukemia
OVCAR-3 ovarian = system: OVCAR-3 ovarian
MALME-3M melanoma = system: MALME-3M melanoma
COLO 205 colon = system: COLO 205 colon
SK-OV-3 ovarian = system: SK-OV-3 ovarian
SF-539 CNS = system: SF-539 CNS
SK-MEL-28 melanoma = system: SK-MEL-28 melanoma
786-0 renal = system: 786-0 renal
SF-268 CNS = system: SF-268 CNS

Measured: TGI

Nc1nc[n+](Cc2ccccc2CCO)c2nc[nH]c12
> 100 µM: all assays above
